Assay results published in BigSolDB 2.1.

CC(C)(c1ccc(O)cc1)c1ccc(O)cc1
solubility (mole fraction)
Settings | 273.15 K | 278.15 K | 283.15 K | 288.15 K | 293.15 K | 298.15 K | 303.15 K | 308.15 K | 313.15 K
in ethanol | 0.209 | 0.214 | 0.22 | 0.226 | 0.232 | 0.238 | 0.245 | 0.252 | 0.26
in ethyl acetate | 0.234 | 0.238 | 0.241 | 0.243 | 0.247 | 0.252 | 0.256 | 0.261 | 0.266
in n-butanol | 0.0745 | 0.0832 | 0.094 | 0.106 | 0.119 | 0.135 | 0.147 | 0.166 | 0.183
in sec-butanol | 0.0343 | 0.0391 | 0.0465 | 0.0564 | 0.0649 | 0.0725 | 0.0846 | 0.094 | 0.105
